ChEMBL document CHEMBL2401728, “An unexpected Dimroth rearrangement leading to annelated thieno[3,2-d][1,2,3]triazolo[1,5-a]pyrimidines with potent antitumor activity” (Eur J Med Chem, 2013)

Tests used:
Type in all cases: functional
OVCAR-4 [1] = experiment: Cytotoxicity against human OVCAR4 cells assessed as cellular growth at 0.01 uM after 48 hrs by SRB assay relative to control
SF-539 = experiment: Cytotoxicity against human SF539 cells assessed as cellular growth at 0.01 uM after 48 hrs by SRB assay relative to control
SW-620 = experiment: Cytotoxicity against human SW620 cells assessed as cellular growth at 0.01 uM after 48 hrs by SRB assay relative to control
HOP-92 = experiment: Cytotoxicity against human HOP92 cells assessed as cellular growth at 0.01 uM after 48 hrs by SRB assay relative to control
TK-10 [2] = experiment: Cytotoxicity against human TK10 cells assessed as cellular growth at 100 uM after 48 hrs by SRB assay relative to control
OVCAR-8 = experiment: Cytotoxicity against human OVCAR8 cells assessed as cellular growth at 100 uM after 48 hrs by SRB assay relative to control
OVCAR-4 [3] = experiment: Cytotoxicity against human OVCAR4 cells assessed as cellular growth at 100 uM after 48 hrs by SRB assay relative to control
UACC-257 = experiment: Cytotoxicity against human UACC257 cells assessed as cellular growth at 100 uM after 48 hrs by SRB assay relative to control
SK-MEL-28 = experiment: Cytotoxicity against human SK-MEL-28 cells assessed as cellular growth at 100 uM after 48 hrs by SRB assay relative to control
SF-268 = experiment: Cytotoxicity against human SF268 cells assessed as cellular growth at 100 uM after 48 hrs by SRB assay relative to control
NCI-H322M [4] = experiment: Cytotoxicity against human NCI-H322M cells assessed as cellular growth at 100 uM after 48 hrs by SRB assay relative to control
[5] = Cytotoxicity against human EKVX cells assessed as cellular growth at 100 uM after 48 hrs by SRB assay relative to control
IGROV-1 = experiment: Cytotoxicity against human IGROV1 cells at 10 uM after 48 hrs by SRB assay
BT-549 [6] = experiment: Cytotoxicity against human BT549 cells assessed as cellular growth at 100 uM after 48 hrs by SRB assay relative to control
[7] = Cytotoxicity against human NCI-ADR-RES cells assessed as cellular growth at 1 uM after 48 hrs by SRB assay relative to control
SK-MEL-5 = experiment: Cytotoxicity against human SK-MEL-5 cells assessed as cellular growth at 1 uM after 48 hrs by SRB assay relative to control
M14 [8] = experiment: Cytotoxicity against human M14 cells assessed as cellular growth at 1 uM after 48 hrs by SRB assay relative to control
U-251 = experiment: Cytotoxicity against human U251 cells assessed as cellular growth at 1 uM after 48 hrs by SRB assay relative to control
HCT-15 = experiment: Cytotoxicity against human HCT15 cells assessed as cellular growth at 1 uM after 48 hrs by SRB assay relative to control
NCI-H322M [9] = experiment: Cytotoxicity against human NCI-H322M cells assessed as cellular growth at 1 uM after 48 hrs by SRB assay relative to control
HOP-62 = experiment: Cytotoxicity against human HOP62 cells assessed as cellular growth at 1 uM after 48 hrs by SRB assay relative to control
HL-60(TB) = experiment: Cytotoxicity against human HL-60(TB) cells assessed as cellular growth at 1 uM after 48 hrs by SRB assay relative to control
MDA-MB-468 = experiment: Cytotoxicity against human MDA-MB-468 cells assessed as cellular growth at 0.1 uM after 48 hrs by SRB assay relative to control
TK-10 [10] = experiment: Cytotoxicity against human TK10 cells after 48 hrs by SRB assay; conditions: TK-10, 48 h
OVCAR-3 = experiment: Cytotoxicity against human OVCAR3 cells after 48 hrs by SRB assay; conditions: OVCAR-3, 48 h
M14 [11] = experiment: Cytotoxicity against human M14 cells after 48 hrs by SRB assay; conditions: M14, 48 h
SF-295 = experiment: Cytotoxicity against human SF295 cells after 48 hrs by SRB assay; conditions: SF-295, 48 h
NCI-H322M [12] = experiment: Cytotoxicity against human NCI-H322M cells after 48 hrs by SRB assay
[13] = Cytotoxicity against human EKVX cells after 48 hrs by SRB assay
[14] = Cytotoxicity against human NCI-ADR-RES cells assessed as cellular growth at 0.1 uM after 48 hrs by SRB assay relative to control
LOX IMVI = experiment: Cytotoxicity against human LOXIMVI cells assessed as cellular growth at 0.1 uM after 48 hrs by SRB assay relative to control
NCI-H522 = experiment: Cytotoxicity against human NCI-H522 cells assessed as cellular growth at 0.1 uM after 48 hrs by SRB assay relative to control
NCI-H226 = experiment: Cytotoxicity against human NCI-H226 cells assessed as cellular growth at 0.1 uM after 48 hrs by SRB assay relative to control
A549 = experiment: Cytotoxicity against human A549 cells assessed as cellular growth at 0.1 uM after 48 hrs by SRB assay relative to control
K562 = experiment: Cytotoxicity against human K562 cells assessed as cellular growth at 0.1 uM after 48 hrs by SRB assay relative to control
T47D = experiment: Cytotoxicity against human T47D cells assessed as cellular growth at 0.01 uM after 48 hrs by SRB assay relative to control
BT-549 [15] = experiment: Cytotoxicity against human BT549 cells assessed as cellular growth at 0.01 uM after 48 hrs by SRB assay relative to control
UO-31 = experiment: Cytotoxicity against human UO31 cells assessed as cellular growth at 0.01 uM after 48 hrs by SRB assay relative to control
[16] = read-out: LC50 (the source's name)
[17] = read-out: pLC50 (the source's name) (converted)

CN1CCN(CCCn2c3c(sc4ncccc43)c(=O)n3nnc(-c4ccccc4)c23)CC1
Activity (OVCAR-4 [1]): 100% | Activity (SF-539): 99% | Activity (SW-620): 96% | Activity (HOP-92): 99% | Activity (TK-10 [2]): -47% | Activity (OVCAR-8): -15% | Activity (OVCAR-4 [3]): -70% | Activity (UACC-257): -87% | Activity (SK-MEL-28): -97% | Activity (SF-268): -86% | Activity (NCI-H322M [4]): -92% | Activity [5]: -80% | Activity (IGROV-1): -51% | Activity (BT-549 [6]): -81% | Activity [7]: 92% | Activity (SK-MEL-5): 93% | Activity (M14 [8]): 97% | Activity (U-251): 98% | Activity (HCT-15): 89% | Activity (NCI-H322M [9]): 90% | Activity (HOP-62): 97% | Activity (HL-60(TB)): 89% | Activity (MDA-MB-468): 95% | GI50 (TK-10 [10]; read-out: GI50): 2.15 µM | TGI (TK-10 [10]; read-out: TGI): 3.75 µM | GI50 (TK-10 [10]; read-out: pGI50 (converted)): 2.14 µM | TGI (TK-10 [10]; read-out: pTGI (converted)): 3.72 µM | GI50 (OVCAR-3; read-out: GI50): 1.81 µM | CC50 (OVCAR-3; [16]): 6.68 µM | TGI (OVCAR-3; read-out: TGI): 3.48 µM | GI50 (OVCAR-3; read-out: pGI50 (converted)): 1.82 µM | CC50 (OVCAR-3; [17]): 6.61 µM | TGI (OVCAR-3; read-out: pTGI (converted)): 3.47 µM | GI50 (M14 [11]; read-out: GI50): 1.87 µM | CC50 (M14 [11]; [16]): 7.16 µM | TGI (M14 [11]; read-out: TGI): 3.66 µM | GI50 (M14 [11]; read-out: pGI50 (converted)): 1.86 µM | CC50 (M14 [11]; [17]): 7.24 µM | TGI (M14 [11]; read-out: pTGI (converted)): 3.63 µM | GI50 (SF-295; read-out: GI50): 1.96 µM | CC50 (SF-295; [16]): 6.96 µM | TGI (SF-295; read-out: TGI): 3.7 µM | GI50 (SF-295; read-out: pGI50 (converted)): 1.95 µM | CC50 (SF-295; [17]): 6.92 µM | TGI (SF-295; read-out: pTGI (converted)): 3.72 µM | GI50 (NCI-H322M [12]; read-out: GI50): 1.74 µM | CC50 (NCI-H322M [12]; [16]): 6.96 µM | TGI (NCI-H322M [12]; read-out: TGI): 3.48 µM | GI50 (NCI-H322M [12]; read-out: pGI50 (converted)): 1.74 µM | CC50 (NCI-H322M [12]; [17]): 6.92 µM | TGI (NCI-H322M [12]; read-out: pTGI (converted)): 3.47 µM | GI50 ([13]; read-out: GI50): 2.12 µM | CC50 [13, 16]: 15.7 µM | TGI ([13]; read-out: TGI): 4.9 µM | GI50 ([13]; read-out: pGI50 (converted)): 2.14 µM | CC50 [13, 17]: 83.2 µM | TGI ([13]; read-out: pTGI (converted)): 4.9 µM | Activity [14]: 91% | Activity (LOX IMVI): 88% | Activity (NCI-H522): 97% | Activity (NCI-H226): 80% | Activity (A549): 95% | Activity (K562): 98% | Activity (T47D): 89% | Activity (BT-549 [15]): 99% | Activity (UO-31): 66%

O=C(CCCn1c2c(sc3ccccc32)c(=O)n2nnc(-c3ccccc3)c12)NCCc1c[nH]cn1
Activity (OVCAR-4 [1]): 110% | Activity (SF-539): 73% | Activity (SW-620): 63% | Activity (HOP-92): 99% | Activity (TK-10 [2]): -79% | Activity (OVCAR-8): -40% | Activity (OVCAR-4 [3]): -87% | Activity (UACC-257): -80% | Activity (SK-MEL-28): -100% | Activity (SF-268): -69% | Activity (NCI-H322M [4]): -84% | Activity [5]: -24% | Activity (IGROV-1): -89% | Activity (BT-549 [6]): -72% | Activity [7]: 51% | Activity (SK-MEL-5): 70% | Activity (M14 [8]): 33% | Activity (U-251): 36% | Activity (HCT-15): 29% | Activity (NCI-H322M [9]): 90% | Activity (HOP-62): 67% | Activity (HL-60(TB)): 29% | Activity (MDA-MB-468): 97% | GI50 (TK-10 [10]; read-out: GI50): 2.17 µM | CC50 (TK-10 [10]; [16]): 6.42 µM | TGI (TK-10 [10]; read-out: TGI): 3.73 µM | GI50 (TK-10 [10]; read-out: pGI50 (converted)): 2.19 µM | CC50 (TK-10 [10]; [17]): 6.46 µM | TGI (TK-10 [10]; read-out: pTGI (converted)): 3.72 µM | GI50 (OVCAR-3; read-out: GI50): 1.66 µM | CC50 (OVCAR-3; [16]): 5.66 µM | TGI (OVCAR-3; read-out: TGI): 3.07 µM | GI50 (OVCAR-3; read-out: pGI50 (converted)): 1.66 µM | CC50 (OVCAR-3; [17]): 5.62 µM | TGI (OVCAR-3; read-out: pTGI (converted)): 3.09 µM | GI50 (M14 [11]; read-out: GI50): 0.327 µM | TGI (M14 [11]; read-out: TGI): 2.05 µM | GI50 (M14 [11]; read-out: pGI50 (converted)): 0.324 µM | TGI (M14 [11]; read-out: pTGI (converted)): 2.04 µM | GI50 (SF-295; read-out: GI50): 0.456 µM | CC50 (SF-295; [16]): 5.41 µM | TGI (SF-295; read-out: TGI): 2.11 µM | GI50 (SF-295; read-out: pGI50 (converted)): 0.457 µM | CC50 (SF-295; [17]): 5.37 µM | TGI (SF-295; read-out: pTGI (converted)): 2.09 µM | GI50 (NCI-H322M [12]; read-out: GI50): 2.75 µM | CC50 (NCI-H322M [12]; [16]): 39.2 µM | TGI (NCI-H322M [12]; read-out: TGI): 9.8 µM | GI50 (NCI-H322M [12]; read-out: pGI50 (converted)): 2.75 µM | CC50 (NCI-H322M [12]; [17]): 38.9 µM | TGI (NCI-H322M [12]; read-out: pTGI (converted)): 9.77 µM | GI50 ([13]; read-out: GI50): 2.5 µM | CC50 [13, 16]: > 100 µM | TGI ([13]; read-out: TGI): 15.8 µM | GI50 ([13]; read-out: pGI50 (converted)): 2.51 µM | CC50 [13, 17]: > 100 µM | TGI ([13]; read-out: pTGI (converted)): 15.8 µM | Activity [14]: 97% | Activity (LOX IMVI): 89% | Activity (NCI-H522): 42% | Activity (NCI-H226): 95% | Activity (A549): 99% | Activity (K562): 23% | Activity (T47D): 85% | Activity (BT-549 [15]): 100% | Activity (UO-31): 104%
